These results are taken from patent US20070208166A1, “Tao Kinase Modulators And Method Of Use” (Exelixis, Inc., priority 2003, published 2007).

Each structure is given as a SMILES string.

The IC50 is the concentration at which inhibition is half-maximal.

What all share (format): biochemical
For assay [1], the target named is T1, KIAA 1361 (baculovirus expressed human KIAA 1361 kinase domain 2-322) (Homo sapiens, UniProt Q7L7X3).
T1 construct: human KIAA 1361 kinase domain 2-322; made in house
T1 sequence (Q7L7X3 2-322): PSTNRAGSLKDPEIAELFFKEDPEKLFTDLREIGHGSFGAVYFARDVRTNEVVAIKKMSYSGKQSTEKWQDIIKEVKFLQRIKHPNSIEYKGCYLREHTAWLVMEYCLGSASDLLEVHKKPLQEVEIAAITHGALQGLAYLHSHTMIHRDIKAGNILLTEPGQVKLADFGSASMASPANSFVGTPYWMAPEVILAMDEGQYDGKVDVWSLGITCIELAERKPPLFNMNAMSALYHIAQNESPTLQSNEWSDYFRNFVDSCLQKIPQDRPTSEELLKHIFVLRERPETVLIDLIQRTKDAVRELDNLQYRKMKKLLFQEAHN
The assay can be described thus: KIAA 1361 Luciferase-Coupled Chemiluminescent Kinase assay (LCCA). The following applies: 2 μM ATP, 10 μM MBP, 12 nM KIAA 1361, 2 hours; read-out: KIAA1361 inhibition IC50. The procedure, abridged:
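KIAA 1361 kinase domain 2-322 (baculovirus, 12 nM) with 2 μM ATP and 10 μM MBP in Tris pH 7.5, MgCl2, MnCl2; 2 h, ambient. Remaining ATP read by luciferase chemiluminescence; 10 concentrations, IC50 by four-parameter fit.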

A further assay has as its target T2, JIK (Homo sapiens, UniProt Q9H2K8).
T2 construct: 6 nM JIK (baculovirus expressed human KIAA 1361 kinase domain2-318); made in house
T2 sequence (Q9H2K8 2-318): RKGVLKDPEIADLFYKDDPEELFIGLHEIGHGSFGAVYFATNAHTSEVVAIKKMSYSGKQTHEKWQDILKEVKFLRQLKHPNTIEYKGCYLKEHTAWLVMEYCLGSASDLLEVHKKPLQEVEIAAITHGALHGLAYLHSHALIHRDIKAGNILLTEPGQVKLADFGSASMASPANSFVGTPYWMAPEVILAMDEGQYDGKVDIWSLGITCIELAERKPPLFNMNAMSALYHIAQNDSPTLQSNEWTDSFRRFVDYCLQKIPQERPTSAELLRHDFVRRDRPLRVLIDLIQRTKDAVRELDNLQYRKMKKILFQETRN
The assay is described as follows: JIK Luciferase-Coupled Chemiluminescent Kinase assay (LCCA). To be noted: 2 μM ATP, 10 μM MBP, 6 nM JIK, 2 hours; read-out: JIK inhibition IC50. An outline of the steps:
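Baculovirus-expressed human KIAA 1361 kinase domain 2-318 at 6 nM, with 10 μM MBP and 2 μM ATP in Tris pH 7.5 with Mg/Mn, ran 2 h at ambient temperature. Remaining ATP was read by luciferase chemiluminescence. IC50 comes from a 10-concentration four-parameter fit.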

Another assay has as its target T3, TAO (Homo sapiens, UniProt Q9UL54).
T3 sequence (Q9UL54 1-1235): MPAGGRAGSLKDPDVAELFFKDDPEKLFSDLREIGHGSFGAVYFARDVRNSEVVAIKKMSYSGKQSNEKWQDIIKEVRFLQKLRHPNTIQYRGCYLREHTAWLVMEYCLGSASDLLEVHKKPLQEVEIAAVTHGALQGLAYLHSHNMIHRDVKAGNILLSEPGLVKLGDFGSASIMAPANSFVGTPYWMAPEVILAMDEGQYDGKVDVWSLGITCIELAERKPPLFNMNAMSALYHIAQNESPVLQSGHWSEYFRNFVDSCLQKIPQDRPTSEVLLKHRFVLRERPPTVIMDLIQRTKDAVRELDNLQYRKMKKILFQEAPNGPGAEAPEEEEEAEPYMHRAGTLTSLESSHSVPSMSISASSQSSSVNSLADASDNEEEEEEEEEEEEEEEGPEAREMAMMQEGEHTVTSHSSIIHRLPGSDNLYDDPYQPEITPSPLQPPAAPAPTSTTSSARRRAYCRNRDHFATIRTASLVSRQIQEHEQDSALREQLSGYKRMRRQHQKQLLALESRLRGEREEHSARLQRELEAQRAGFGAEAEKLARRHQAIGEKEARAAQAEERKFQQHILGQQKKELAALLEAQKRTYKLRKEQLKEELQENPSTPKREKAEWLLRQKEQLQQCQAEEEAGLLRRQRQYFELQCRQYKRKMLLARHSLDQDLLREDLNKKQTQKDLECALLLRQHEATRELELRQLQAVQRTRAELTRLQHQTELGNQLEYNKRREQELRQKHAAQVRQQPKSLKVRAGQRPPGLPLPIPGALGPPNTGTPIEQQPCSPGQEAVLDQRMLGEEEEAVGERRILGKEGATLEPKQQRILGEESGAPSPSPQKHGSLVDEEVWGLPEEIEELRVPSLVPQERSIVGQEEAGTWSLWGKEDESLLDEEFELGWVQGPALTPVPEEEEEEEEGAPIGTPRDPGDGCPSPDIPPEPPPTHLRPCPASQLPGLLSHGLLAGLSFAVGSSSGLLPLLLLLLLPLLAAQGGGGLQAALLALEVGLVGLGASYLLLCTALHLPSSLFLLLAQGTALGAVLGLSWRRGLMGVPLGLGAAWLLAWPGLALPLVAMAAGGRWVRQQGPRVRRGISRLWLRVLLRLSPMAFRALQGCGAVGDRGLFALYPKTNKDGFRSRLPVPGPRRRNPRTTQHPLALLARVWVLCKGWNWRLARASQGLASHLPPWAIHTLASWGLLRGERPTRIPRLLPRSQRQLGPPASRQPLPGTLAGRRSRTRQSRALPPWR
The assay can be described thus: TAO Luciferase-Coupled Chemiluminescent Kinase assay (LCCA). To be noted: 2 μM ATP, 10 μM MBP, 12 nM TAO, 2 hours; read-out: TAO inhibition IC50.

Consider `CCc1ccc(-c2ccc(C(=O)NCC(=O)N3CCN(c4ccccc4)CC3)cc2)cc1` [Entry 68, 4′-ethyl-N-[2-oxo-2-(4-phenylpiperazin-1-yl)ethyl]biphenyl-4-carboxamide], for which the IC50 (in assay [1]; on JIK; on TAO) was more than 5 µM each time.
With `O=C(CNCc1ccc(-c2ccccc2)cc1)NC1CCCc2ccccc21` (stereo not drawn) [Entry 69, N˜2˜-(biphenyl-4-ylmethyl)-N-(1,2,3,4-tetrahydronaphthalen-1-yl)glycinamide], the IC50 (in assay [1]; at JIK; at TAO) was more than 5 µM throughout.
For the compound `O=C(CNC(=O)c1ccc(-n2ccnc2)cc1)NC1CCCc2ccccc21` (stereo not drawn) [Entry 70, 4-(1H-imidazol-1-yl)-N-[2-oxo-2-(1,2,3,4-tetrahydronaphthalen-1-ylamino)ethyl]benzamide], the results for the IC50 (in assay [1]; at JIK; on TAO) were 0.5 to 5 µM, 0.05 to 0.5 µM and 0.5 to 5 µM, respectively.
In the case of `O=C(CNC(=O)c1ccc(-c2cnco2)cc1)NC1CCCc2ccccc21` (stereo not drawn) [Entry 71, 4-(1,3-oxazol-5-yl)-N-[2-oxo-2-(1,2,3,4-tetrahydronaphthalen-1-ylamino)ethyl]benzamide], the figures for the IC50 (in assay [1]; on JIK; at TAO) were 0.05 to 0.5 µM, less than 0.05 µM and 0.05 to 0.5 µM, respectively.
Consider `O=C(CNC(=O)NCCc1ccc(-c2ccccc2)cc1)NC1CCCc2ccccc21` (stereo not drawn) [Entry 72, N˜2˜-{[(2-biphenyl-4-ylethyl)amino]carbonyl}-N-(1,2,3,4-tetrahydronaphthalen-1-yl)glycinamide], for which the IC50 (in assay [1]; at JIK; on TAO) was more than 5 µM in each case.
Regarding `O=C(CNC(=O)Nc1ccc(-c2ccccc2)cc1)NC1CCCc2ccccc21` (stereo not drawn) [Entry 73, N˜2˜-[(biphenyl-4-ylamino)carbonyl]-N-(1,2,3,4-tetrahydronaphthalen-1-yl)glycinamide], the results for the IC50 (in assay [1]; at JIK; on TAO) were more than 5 µM, 0.05 to 0.5 µM and more than 5 µM, respectively.
For the compound `CCc1ccc(-c2ccc(C(=O)NCC(=O)NCc3ccccc3C)cc2)cc1` [Entry 74, 4′-ethyl-N-(2-{[(2-methylphenyl)methyl]amino}-2-oxoethyl)biphenyl-4-carboxamide], the IC50 (in assay [1]; at JIK; on TAO) was 0.05 to 0.5 µM each time.
On to `CCc1ccc(-c2ccc(C(=O)NCC(=O)NCCc3ccccc3)cc2)cc1` [Entry 75, 4′-ethyl-N-{2-oxo-2-[(2-phenylethyl)amino]ethyl}biphenyl-4-carboxamide], for which the IC50 (in assay [1]; at JIK; on TAO) was more than 5 µM in each case.
Turning to `CCc1ccc(-c2ccc(C(=O)NCC(=O)N[C@@H]3CCCc4ccccc43)cc2)cc1` [Entry 76, 4′-ethyl-N-{2-oxo-2-[(1R)-1,2,3,4-tetrahydronaphthalen-1-ylamino]ethyl}biphenyl-4-carboxamide], the IC50 (in assay [1]; on JIK; at TAO) was more than 5 µM in each case.
Consider `O=C(CNC(=O)c1ccc(N2CCCCC2)cc1)NC1CCCc2ccccc21` (stereo not drawn) [Entry 77, N-[2-oxo-2-(1,2,3,4-tetrahydronaphthalen-1-ylamino)ethyl]-4-piperidin-1-ylbenzamide], for which the IC50 in assay [1] was in the range of 0.5 to 5 µM; at JIK, 0.05 to 0.5 µM; at TAO, 0.5 to 5 µM.
Consider `CCc1ccc(-c2ccc(C(=O)NCC(=O)NC(C)c3ccccc3)cc2)cc1` (stereo not drawn) [Entry 78, 4′-ethyl-N-{2-oxo-2-[(1-phenylethyl)amino]ethyl}biphenyl-4-carboxamide], for which the results for the IC50 (in assay [1]; on JIK; on TAO) were 0.5 to 5 µM, 0.05 to 0.5 µM and more than 5 µM, respectively.
As for `CCc1ccc(-c2ccc(C(=O)NCC(=O)NCc3ccccc3C(F)(F)F)cc2)cc1` [Entry 79, 4′-ethyl-N-[2-oxo-2-({[2-(trifluoromethyl)phenyl]methyl}amino)ethyl]biphenyl-4-carboxamide], the concentration for half-maximal inhibition (IC50) in assay [1] is 0.05 to 0.5 µM; at JIK, 0.05 to 0.5 µM; at TAO, more than 5 µM.
Consider `O=C(CNC(=O)c1ccc2ncccc2c1)NC1CCCc2ccccc21` (stereo not drawn) [Entry 80, N-[2-oxo-2-(1,2,3,4-tetrahydronaphthalen-1-ylamino)ethyl]quinoline-6-carboxamide], for which the 50% inhibitory concentration (IC50) was 0.5 to 5 µM in assay [1], 0.05 to 0.5 µM on JIK and 0.5 to 5 µM at TAO.
As to `O=C(CC(NC(=O)c1ccccc1)c1ccccc1)NCC(=O)NC1CCCc2ccccc21` (stereo not drawn) [Entry 81, N-(3-oxo-3-{[2-oxo-2-(1,2,3,4-tetrahydronaphthalen-1-ylamino)ethyl]amino}-1-phenylpropyl)benzamide], the IC50 (in assay [1]; at JIK; at TAO) was more than 5 µM in each case.
In the case of `O=C(CNC(=O)c1ccc2c(c1)CCCC2)NC1CCCc2ccccc21` (stereo not drawn) [Entry 82, N-[2-oxo-2-(1,2,3,4-tetrahydronaphthalen-1-ylamino)ethyl]-5,6,7,8-tetrahydronaphthalene-2-carboxamide], the IC50 in assay [1] was more than 5 µM; at JIK it was 0.5 to 5 µM; at TAO, more than 5 µM.
Take `CCc1ccc(-c2ccc(C(=O)NCC(=O)NC(CC)c3ccccc3)cc2)cc1` (stereo not drawn) [Entry 83, 4′-ethyl-N-{2-oxo-2-[(1-phenylpropyl)amino]ethyl}biphenyl-4-carboxamide]: the results for the half-inhibitory concentration (IC50) (in assay [1]; at JIK; at TAO) were 0.5 to 5 µM, 0.05 to 0.5 µM and more than 5 µM, respectively.
Consider `COc1ccc2nc(NC(=O)CNC(=O)CC(NC(C)=O)c3ccccc3)sc2c1` (stereo not drawn) [Entry 84, 3-(acetylamino)-N-(2-{[6-(methyloxy)-1,3-benzothiazol-2-yl]amino}-2-oxoethyl)-3-phenylpropanamide], for which the IC50 (in assay [1]; at JIK; on TAO) was more than 5 µM in each case.
Turning to `COc1ccc2nc(NC(=O)CNC(=O)CCNC(=O)c3ccccc3)sc2c1` [Entry 85, N-(phenylcarbonyl)-beta-alanyl-N-[6-(methyloxy)-1,3-benzothiazol-2-yl]glycinamide], the IC50 (in assay [1]; at JIK; at TAO) was more than 5 µM each time.
Consider `O=C(CNC(=O)c1ccc2ncccc2c1)Nc1cccc2c1CCCC2` [Entry 86, N-[2-oxo-2-(5,6,7,8-tetrahydronaphthalen-1-ylamino)ethyl]quinoline-6-carboxamide], for which the IC50 (in assay [1]; at JIK; on TAO) was more than 5 µM in each case.
